# From article PMC8760490, “Discovery of novel furanylbenzamide inhibitors that target oncogenic tyrosine phosphatase SHP2 in leukemia cells” (The Journal of Biological Chemistry, 2021)
# pIC50: −log10 of the molar value.
# Biological target: T1, full-length SHP2 WT (SHP2-WT) (Homo sapiens, UniProt Q06124)
# T1 construct: Recombinant human full-length SHP2 (1–594) WT and E76K mutants; made in house
# Assay: DiFMUP fluorescence phosphatase inhibition assay, SHP2-WT activated with IRS-1 peptide
# Format: biochemical
# Settings: DiFMUP at Km (60 μM), pH 6.0
# Source text: To test the synthesized compounds for their potential to inhibit SHP2 activity, a fluorescence intensity-based assay using 6,8-difluoro-4-methylumbelliferyl phosphate (DiFMUP) as the substrate was adapted for three recombinant SHP2 constructs: (1) the SHP2 catalytic domain (SHP2cat; residues 248–527), (2) the full-length SHP2-E76K oncogenic mutant, and (3) the full-length SHP2 WT (SHP2-WT). The recombinant SHP2 proteins were expressed and purified as described previously ([36]). A dually phosphorylated peptide derived from the insulin receptor substrate 1 (IRS-1) served as a surrogate binding protein and was used to activate SHP2-WT ([30], [36]). […] Michaelis–Menten experiments to determine the DiFMUP Michaelis–Menten constant (Km) for each SHP2 construct were performed as described previously ([36]) and yielded the following values: SHP2-WT, Km = 60 μM; SHP2-E76K, Km = 20 μM; and SHP2cat, Km = 20 μM. Relative maximum rates (Vmax) of the DiFMUP reactions expressed as relative fluorescence units per minute (RFU/min) were as follows: SHP2-WT, Vmax = 871 RFU/min; SHP2-E76K, Vmax = 2730 RFU/min; and SHP2cat, Vmax = 2912 RFU/min. IC50 values for each compound were determined from initial rates in 10-point dose–response assays using DiFMUP at a concentration corresponding to its Km value for the respective SHP2 construct. […] Replacements for the benzothiophenone were explored using analog #10.
# Recombinant human full-length SHP2 (1–594) WT and E76K mutants, as well as the SHP2cat (248–527), were expressed and purified as described before ([36], [41]). Recombinant human PTP1B (1–300) and the codon-optimized STEP (280–566) catalytic domains were cloned into PET-15b and expressed as N-His-tagged fusion proteins. For expression, transformed BL21(DE3) cells were grown and induced similar as described for SHP2. Collected cells were resuspended in lysis buffer (25 mM Tris, pH 7.5, 300 mM NaCl, 50 mM imidazole, and 10% glycerol) with 100 mg/l RNaseA and were lysed with two passages using a microfluidizer. The lysate was clarified by centrifugation at 15,000g for 50 min and applied to nickel–nitrilotriacetic acid resin. The column resin was washed, and the PTP1B or STEP protein was eluted in lysis buffer at 300 mM imidazole. The PTP1B or STEP protein was further purified by S75 size-exclusion chromatography in 50 mM Tris, pH 7.5, 50 mM NaCl. The eluted peak fractions were supplemented with tris(2-carboxyethyl)phosphine to 10 mM, concentrated by ultrafiltration, and stored at −80 °C. The purified yield of PTP1B was 33 mg/l cell culture; the yield of STEP was 16 mg/l cell culture.
# SHP2 inhibitors were tested at RT in a 384-well plate format standard phosphatase fluorescence intensity assay using DiFMUP (Invitrogen/Thermo Fisher Scientific) as a substrate and a total reaction volume of 25 μl. SHP2 inhibitors or vehicle (DMSO) were spotted in triplicate into a black Greiner FLUOTRAC 200 384-well microplate (catalog no.: 781076; Greiner) for a 10-point dose–response assay using an Echo 555 Liquid Handler (Labcyte, Inc). PTP working solutions were prepared at a 0.625 nM concentration (for a final concentration of 0.5 nM) in buffer containing 50 mM Bis–Tris, pH 6.0, 50 mM NaCl, 5 mM DTT, and 0.01% Tween-20. Prior to the assay, a dually phosphorylated IRS-1 peptide (625 nM [500 nM final] ([30])) was added to full-length WT SHP2 working solutions and incubated for 20 min. DiFMUP working solutions at 5× final concentration were prepared in 50 mM Bis–Tris, pH 6.0, 50 mM NaCl, and 0.01% Tween-20. About 20 μl of PTP working solution was dispensed into the microplate and incubated with inhibitor for 20 min at RT. […] The reaction was initiated by addition of 5 μl DiFMUP working solutions. Fluorescence intensity was measured in kinetic mode (every minute for 7 or 10 min) using a Tecan Spark Multimode Microplate Reader (Tecan) with an excitation wavelength of 360 nm and an emission wavelength of 460 nm. […]
row,pIC50,Structure (SMILES)
1,5.38,"O=C1/C(=C/c2ccc(-c3ccc(O)c(-c4nn[nH]n4)c3)o2)Sc2ccccc21 [SBI-3405, (Z)-2-((5-(4-Hydroxy-3-(2H-tetrazol-5-yl)phenyl)furan-2-yl)methylene)benzo[b]thiophen-3(2H)-one]"
2,5.39,"O=C1CCCC1=Cc1ccc(-c2ccc(O)c(C(=O)Nc3ccccc3)c2)o1 [SBI-3192, 2-Hydroxy-5-(5-((2-oxocyclopentylidene)methyl)furan-2-yl)-N-phenylbenzamide]"
3,5.30,"Nc1ccc(NC(=O)c2cc(-c3ccc(/C=C4\Sc5ccccc5C4=O)o3)ccc2O)cc1 [SBI-2130, (Z)-N-(4-Aminophenyl)-2-hydroxy-5-(5-((3-oxobenzo[b]thiophen-2(3H)-ylidene)methyl)furan-2-yl)benzamide]"
4,4.96,"N#Cc1cc(-c2ccc(/C=C3\Sc4ccccc4C3=O)o2)ccc1O [SBI-3404, (Z)-2-Hydroxy-5-(5-((3-oxobenzo[b]thiophen-2(3H)-ylidene)methyl)furan-2-yl)benzonitrile]"

row,Structure (SMILES),pIC50
1,"O=C(Nc1ccccc1)c1cc(-c2ccc(/C=C3\Sc4ccccc4C3=O)o2)ccc1O [SBI-4668, (Z)-2-Hydroxy-5-(5-((3-oxobenzo[b]thiophen-2(3H)-ylidene)methyl)furan-2-yl)-N-phenylbenzamide]",4.82
